US20200390718A1, “METHODS AND COMPOSITIONS FOR […]-VIRAL TRANSFER VECTOR IMMUNE RESPONSE” (Selecta Biosciences, Inc., priority 2019, published 2020)

Tested on: AAV8-SEAP
Assay: Serum SEAP expression after AAV8-SEAP injections
Type: in vivo, C57BL/6 female mice
Conditions: after the second boost at d140 (FIG. 2A) or d147 (FIG. 2B); AAV8-SEAP 1×10^10 VG
Experimental: Three groups of C57BL/6 female mice (6 mice each) were injected (r.o.) on days 0 and 56 with 1×10^10 VG of AAV8-SEAP without any nanoparticles (one group) or with ImmTOR™ at 100 μg of rapamycin (synthetic nanocarriers comprising rapamycin, such as those produced in Example 1; two groups). Of the […] two groups, one group was left untreated and one was additionally treated with systemic dexamethasone (i.p., 200 μg in 100 μL per injection) on injection days 0 and 56.
At time indicated in FIGS. 1A and 1B (days 14, 35, 49, 63 and 71 or days 13, 19, 33, 48, 62 and 69), mice were bled, serum separated from whole blood, and stored at −20±5° C. until analysis. SEAP levels in serum were measured using an assay kit from ThermoFisher Scientific (Waltham, Mass., USA). Briefly, sera samples and positive controls were diluted in dilution buffer, incubated at 65° C. for 30 min, then cooled to room temperature, and plated into a 96-well format. Then, assay buffer (5 min) and substrate (20 min) were added and the plates were read on a luminometer (477 nm).
This has warranted a series of further studies in which four groups of C57BL/6 female mice (6 mice each) were injected (r.o.) on days 0, 56 and 140 or 147 with 1×10^10 VG of AAV8-SEAP without any nanoparticles (two groups) or with ImmTOR™ at 100 μg of rapamycin (synthetic nanocarriers comprising rapamycin; two groups). […]

C[C@@H]1C[C@H]2[C@@H]3CCC4=CC(=O)C=C[C@]4(C)[C@@]3(F)[C@@H](O)C[C@]2(C)[C@@]1(O)C(=O)CO [dexamethasone, 9α-fluoro-11β,17α,21-trihydroxy-16α-methylpregna-1,4-diene-3,20-dione]
benefit in SEAP expression vs. untreated: 10-80%
